In US7192924B2, “Corticotropin releasing factor 2 receptor agonists” (priority 2002, dated 2007):
Ends that are not written are not given here. Peptide text beside a SMILES is read from it.

Assays:
CRF1R = target: T1, CRF1R (Homo sapiens, UniProt P34998); assay: CRF1R agonist activity (EC50, Emax), called comparative CRF binding; type: cell-based; settings: read-out: CRF1R EC50
T1 sequence (P34998 24-415): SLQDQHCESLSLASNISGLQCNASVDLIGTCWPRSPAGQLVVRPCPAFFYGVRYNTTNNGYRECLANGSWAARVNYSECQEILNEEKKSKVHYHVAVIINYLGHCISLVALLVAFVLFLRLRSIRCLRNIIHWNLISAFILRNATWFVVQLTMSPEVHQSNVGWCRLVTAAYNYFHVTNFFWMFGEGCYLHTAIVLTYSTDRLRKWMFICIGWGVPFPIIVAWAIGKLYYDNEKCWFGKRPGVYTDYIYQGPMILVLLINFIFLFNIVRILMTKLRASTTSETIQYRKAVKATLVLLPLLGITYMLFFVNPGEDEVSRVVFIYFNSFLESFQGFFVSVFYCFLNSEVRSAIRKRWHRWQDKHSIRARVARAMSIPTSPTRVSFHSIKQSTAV
In short: (§1)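 Single-subtype CRFR cells, peptide vs vehicle, cAMP via CRE-reporter or lysate assay; background from other CRFR type subtracted if present.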

CRF2R = target: T2, CRF2R (Homo sapiens, UniProt Q13324); assay: CRF2R agonist activity (EC50, Emax), called comparative CRF binding; type: cell-based; settings: read-out: CRF2R EC50
T2 sequence (Q13324 1-411): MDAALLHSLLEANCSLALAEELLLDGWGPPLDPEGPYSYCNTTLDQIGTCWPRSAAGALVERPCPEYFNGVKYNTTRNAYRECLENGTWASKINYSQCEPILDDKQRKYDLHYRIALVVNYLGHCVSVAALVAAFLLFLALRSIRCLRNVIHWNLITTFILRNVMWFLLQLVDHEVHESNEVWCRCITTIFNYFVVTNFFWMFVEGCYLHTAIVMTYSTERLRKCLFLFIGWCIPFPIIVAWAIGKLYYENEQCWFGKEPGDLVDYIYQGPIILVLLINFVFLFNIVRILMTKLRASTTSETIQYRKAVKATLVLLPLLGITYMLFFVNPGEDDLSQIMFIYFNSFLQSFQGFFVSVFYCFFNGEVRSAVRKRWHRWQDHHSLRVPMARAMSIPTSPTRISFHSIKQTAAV
In short: as §1

| Molecule | EC50 (CRF1R) [nM] | EC50 (CRF2R) [nM] |
| --- | --- | --- |
| CC[C@H](C)[C@H](N)C(=O)N[C@H](C(=O)N[C@@H](CC(C)C)C(=O)N[C@@H](CO)C(=O)N[C@@H](CC(C)C)C(=O)N[C@@H](CC(=O)O)C(=O)N[C@H](C(=O)N1CCC[C@H]1C(=O)N[C@H](C(=O)NCC(=O)N[C@@H](CC(C)C)C(=O)N[C@@H](CC(C)C)C(=O)N[C@@H](CCC(N)=O)C(=O)N[C@H](C(=O)N[C@@H](CC(C)C)C(=O)N[C@@H](CC(C)C)C(=O)N[C@@H](CCC(=O)O)C(=O)N[C@@H](CCC(N)=O)C(=O)N[C@@H](C)C(=O)N[C@@H](CCCNC(=N)N)C(=O)N[C@@H](C)C(=O)N[C@@H](CCCNC(=N)N)C(=O)N[C@@H](C)C(=O)N[C@@H](C)C(=O)N[C@@H](CCCNC(=N)N)C(=O)N[C@@H](CCC(=O)O)C(=O)N[C@@H](CCC(N)=O)C(=O)N[C@@H](C)C(=O)N[C@H](C(=O)N[C@H](C(=O)N[C@@H](CC(N)=O)C(=O)N[C@@H](C)C(=O)N[C@@H](CCCNC(=N)N)C(=O)N[C@H](C(=O)N[C@@H](CC(C)C)C(=O)N[C@@H](C)C(=O)N[C@@H](CCCNC(=N)N)C(=O)N[C@H](C(=O)N[C@@H](CCSC)C(N)=O)C(C)C)[C@@H](C)CC)[C@@H](C)O)[C@@H](C)O)[C@@H](C)CC)[C@@H](C)CC)C(C)C)C(C)C [compound 368] (H-IVLSLDVPIGLLQILLEQARARAAREQATTNARILARVM-NH2) | ≥ 1000 | 50.4 |
| CC[C@H](C)[C@H](N)C(=O)N[C@H](C(=O)N[C@@H](CC(C)C)C(=O)N[C@@H](CO)C(=O)N[C@@H](CC(C)C)C(=O)N[C@@H](CC(=O)O)C(=O)N[C@H](C(=O)N1CCC[C@H]1C(=O)N[C@H](C(=O)N[C@@H](Cc1c[nH]cn1)C(=O)N[C@@H](CC(C)C)C(=O)N[C@@H](CC(C)C)C(=O)N[C@@H](CCC(N)=O)C(=O)N[C@H](C(=O)N[C@@H](CC(C)C)C(=O)N[C@@H](CC(C)C)C(=O)N[C@@H](CCC(=O)O)C(=O)N[C@@H](CCC(N)=O)C(=O)N[C@@H](C)C(=O)N[C@@H](CCCNC(=N)N)C(=O)N[C@@H](C)C(=O)N[C@@H](CCCNC(=N)N)C(=O)N[C@@H](C)C(=O)N[C@@H](C)C(=O)N[C@@H](CCCNC(=N)N)C(=O)N[C@@H](CCC(=O)O)C(=O)N[C@@H](CCC(N)=O)C(=O)N[C@@H](C)C(=O)N[C@H](C(=O)N[C@H](C(=O)N[C@@H](CC(N)=O)C(=O)N[C@@H](C)C(=O)N[C@@H](CCCNC(=N)N)C(=O)N[C@H](C(=O)N[C@@H](CC(C)C)C(=O)N[C@@H](C)C(=O)N[C@@H](CCCNC(=N)N)C(=O)N[C@H](C(N)=O)C(C)C)[C@@H](C)CC)[C@@H](C)O)[C@@H](C)O)[C@@H](C)CC)[C@@H](C)CC)C(C)C)C(C)C [compound 371] (H-IVLSLDVPIHLLQILLEQARARAAREQATTNARILARV-NH2; N-terminus assumed) | ≥ 1000 | 6.62 |
| CC[C@H](C)[C@H](NC(=O)[C@H](CCCNC(=N)N)NC(=O)[C@H](C)NC(=O)[C@H](CC(N)=O)NC(=O)[C@H](CCC(N)=O)NC(=O)[C@H](CCC(=O)O)NC(=O)[C@H](C)NC(=O)[C@H](CCCNC(=N)N)NC(=O)[C@H](CCC(=O)O)NC(=O)[C@H](CCCNC(=N)N)NC(=O)[C@H](CCC(N)=O)NC(=O)[C@H](CO)NC(=O)[C@H](CCC(N)=O)NC(=O)[C@@H](NC(=O)[C@H](CCCCN)NC(=O)[C@H](CCC(=O)O)NC(=O)[C@H](CC(C)C)NC(=O)[C@H](CCC(=O)O)NC(=O)[C@H](CC(C)C)NC(=O)[C@H](CC(C)C)NC(=O)[C@@H](NC(=O)[C@H](CCCNC(=N)N)NC(=O)[C@H](CC(C)C)NC(=O)[C@H](CC(C)C)NC(=O)[C@H](CC(C)C)NC(=O)[C@H](CC(C)C)NC(=O)[C@@H]1CCCN1C(=O)[C@@H](NC(=O)[C@H](CC(=O)O)NC(=O)[C@@H](NC(=O)[C@H](CO)NC(=O)[C@H](CC(C)C)NC(=O)[C@H](CO)NC(=O)[C@@H]1CCCN1C(=O)[C@H](CC(N)=O)NC(=O)[C@@H](N)CC(=O)O)[C@@H](C)CC)C(C)C)[C@@H](C)O)[C@@H](C)O)C(=O)N[C@@H](Cc1ccccc1)C(=O)N[C@@H](C)C(=O)N[C@@H](CCCNC(=N)N)C(=O)N[C@H](C(N)=O)C(C)C [compound 384] (H-DNPSLSIDVPLLLLRTLLELEKTQSQRERAEQNARIFARV-NH2; N-terminus assumed) | ≥ 1000 | 7.1 |
| HHHHHHIVLSLDVPIGLLQILLEQARARAAREQATTNARILARN-NH2 [compound 296] | ≥ 100 | 6.66 |
| NDDPPISIDLPFFLLRNMIEMARIENEREQAGLNAKYLAEV-NH2 [compound 264] | 704 | ≥ 100 |
| NDDPPISIDLPFHLLRNMIEMARIENEREQAGLNAKYLAEV-NH2 [compound 262] | 408 | ≥ 100 |
| NDDPPISIDLPFYLLRNMIEMARIENEREQAGLNAKYLAEV-NH2 [compound 261] | 274 | ≥ 100 |
| NDDPPISIDLPLFLLRNMIEMARIENEREQAGLNAKYLAEV-NH2 [compound 257] | 745 | ≥ 100 |
| NDDPPISIDLPLHLLRNMIEMARIENEREQAGLNAKYLAEV-NH2 [compound 259] | 820 | ≥ 100 |
| SQEPPISLDLTFHLLREVLEQARARAAREQATTNARILARV-NH2 [compound 157] | ≥ 100 | 42 |
